Data published in US8916555B2, “3,5-diaminopyrazole kinase inhibitors” (Axikin Pharmaceuticals, Inc., priority 2012, dated 2014).

target: T1, kinase domain protein of RC kinase (Homo sapiens, UniProt Q56UN5); test: Enzymatic assay for kinase inhibitory activity (Crebtide substrate, LANCE readout), kinase domain protein; format: biochemical; conditions: test compound 1 μM, ATP 1 μM, Crebtide 50 nM
T1 sequence (Q56UN5 1061-1324 limits assumed): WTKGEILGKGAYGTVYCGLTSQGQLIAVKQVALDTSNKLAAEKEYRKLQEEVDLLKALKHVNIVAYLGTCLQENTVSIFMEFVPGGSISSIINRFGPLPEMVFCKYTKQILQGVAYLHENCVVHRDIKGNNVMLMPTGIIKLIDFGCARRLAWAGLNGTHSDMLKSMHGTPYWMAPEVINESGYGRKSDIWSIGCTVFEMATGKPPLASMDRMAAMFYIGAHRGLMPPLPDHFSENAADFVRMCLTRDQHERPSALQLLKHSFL
Method: Solutions of a test compound, Crebtide (a substrate), a kinase, and ATP were prepared using 1×MAPK Buffer (50 mM HEPES, 1 mM EGTA, […], 10 mM MgCl2, 2 mM DTT, and 0.01% Tween 20).
To each well, the test compound (1 μL) was first added (in duplicate) to reach a final concentration of 1 μM or 1×IC50 of the compound. The kinase (5 μL) was then added to each well to reach a final concentration of […] for the kinase domain or […] for the full-length domain. Each plate included a positive and negative controls in duplicate wells. Crebtide (2.5 μL) was then added to each well in duplicate to reach a final concentration of 50 nM. If the full-length kinase was used, the plates were incubated for 45 min at room temperature before proceeding further. ATP (2.5 μL) was added to each well to reach a final concentration of 1 μM for the kinase domain and 3 μM for the full-length.
After the addition of ATP, the plates were incubated for 45 min at room temperature. During the incubation, an EDTA solution (40 mM) and anti-Crebtide ([…]) were prepared. Additionally, a detection buffer stock solution was diluted ten fold before use.
After the incubation, the anti-Crebtide (5 μL) and EDTA (5 μL) were added to each well to reach their final concentrations of […] and 10 mM, respectively. The plates were allowed to develop at room temperature for 45 min. The plates were then read at 665 nm and 615 nm using Perkin Elmer Lance machine.
The biological results of inhibition of the kinase domain protein of RC kinase are summarized in Tables 2 and 3, wherein A represents at least 50% inhibition of the RC kinase activity at 1 μM; B represents no greater than 50% but at least 20% inhibition of the RC kinase activity at 1 μM; C represents no greater than 20% but at least 5% inhibition of the RC kinase activity at 1 μM; and D represents no greater than 5% inhibition of the RC kinase activity at 1 μM.

Row | Structure (SMILES) | inhibition at 1 µM [%] | Activity (inhibition of the RC kinase activity at 1 μM)
1 | CCc1cccc(Nc2n[nH]c(NCc3ccc(O)cc3)c2C(N)=O)c1 [Compound D68, 3-((3-ethylphenyl)amino)-5-((4-hydroxybenzyl)amino)-1H-pyrazole-4-carboxamide] | ≥ 50 | –
2 | Cc1ccc(CNc2[nH]nc(Nc3cccc(Cl)c3)c2C#N)c(O)c1 [Compound C30] | 5 to 20 | –
3 | N#Cc1c(Nc2cccc(Cl)c2)n[nH]c1NCc1ccc(OCCO)cc1 [Compound C21, 3-((3-chlorophenyl)amino)-5-((4-(2-hydroxyethoxy)benzyl)amino)-1H-pyrazole-4-carbonitrile] | 5 to 20 | –
4 | N#Cc1c(Nc2cccc(Cl)c2)n[nH]c1NCc1ccc(Oc2nccc(C(F)(F)F)n2)cc1 [Compound C1, 3-((3-chlorophenyl)amino)-5-((4-((4-(trifluoromethyl)pyrimidin-2-yl)oxy)benzyl)amino)-1H-pyrazole-4-carbonitrile] | 5 to 20 | –
5 | N#Cc1c(Nc2cccc(Cl)c2)n[nH]c1NCc1cccn1S(=O)(=O)c1ccccc1 [Compound C4] | 5 to 20 | –
6 | Cc1ccc(S(=O)(=O)Nc2ccc(Nc3n[nH]c(NCc4ccc(O)cc4)c3C(N)=O)cc2)cc1 [Compound D136, 5-((4-hydroxybenzyl)amino)-3-((4-(4-methylphenylsulfonamido)phenyl)amino)-1H-pyrazole-4-carboxamide] | 20 to 50 | –
7 | NC(=O)c1c(Nc2ccc(-n3cccn3)cc2)n[nH]c1NCc1ccc(O)cc1 [Compound D79, 3-((4-(1H-pyrazol-1-yl)phenyl)amino)-5-((4-hydroxybenzyl)amino)-1H-pyrazole-4-carboxamide] | ≥ 50 | –
8 | Cn1nc(C(F)(F)F)c(CNc2[nH]nc(Nc3cccc(Cl)c3)c2C#N)c1Cl [Compound C9] | ≤ 5 | –
9 | NC(=O)c1c(NC2CCCCC2)n[nH]c1NCc1ccc(O)cc1 [Compound D133, 3-(cyclohexylamino)-5-((4-hydroxybenzyl)amino)-1H-pyrazole-4-carboxamide] | 20 to 50 | –
10 | COc1ccc(C(F)(F)F)cc1CNc1[nH]nc(Nc2cccc(Cl)c2)c1C#N [Compound C14] | ≤ 5 | –
11 | COc1ccc(C(=O)Nc2ccc(Nc3n[nH]c(NCc4ccc(O)cc4)c3C(N)=O)cc2)cc1OC [Compound D129] | ≥ 50 | –
12 | NC(=O)c1c(Nc2cccc(Cl)c2)n[nH]c1NCc1cccn1S(=O)(=O)c1ccccc1 [Compound D18, 3-((3-chlorophenyl)amino)-5-(((1-(phenylsulfonyl)-1H-pyrrol-2-yl)methyl)amino)-1H-pyrazole-4-carboxamide] | 20 to 50 | –
13 | NC(=O)c1c(Nc2ccc(Cc3ccccc3)cc2)n[nH]c1NCc1ccc(O)cc1 [Compound D83, 3-((4-benzylphenyl)amino)-5-((4-hydroxybenzyl)amino)-1H-pyrazole-4-carboxamide] | ≥ 50 | –
14 | NC(=O)c1c(Nc2cccc(Cl)c2)n[nH]c1NCc1ccc([N+](=O)[O-])cc1 [Compound D74, 3-((3-chlorophenyl)amino)-5-((4-nitrobenzyl)amino)-1H-pyrazole-4-carboxamide] | 5 to 20 | –
15 | N#Cc1c(Nc2cccc(Cl)c2)n[nH]c1NCc1ccc(-c2ccccn2)s1 [Compound C16] | ≤ 5 | –
16 | NC(=O)c1c(Nc2ccc(-c3cc[nH]n3)cc2)n[nH]c1NCc1ccc(O)cc1 [Compound D84] | ≥ 50 | –
17 | NC(=O)c1c(Nc2cccc(Cl)c2)n[nH]c1NCc1ccc(Cl)nc1 [Compound D6] | 5 to 20 | –
18 | Cc1cc(CNc2[nH]nc(Nc3cccc(Cl)c3)c2C(N)=O)cc(C)c1O [Compound D8] | 20 to 50 | –
19 | Cc1cc(C)cc(CNc2[nH]nc(Nc3cccc(Cl)c3)c2C(N)=O)c1 [Compound D78] | 5 to 20 | –
20 | COc1cc(OC)c(OC)cc1CNc1[nH]nc(Nc2cccc(Cl)c2)c1C(N)=O [Compound D58] | 5 to 20 | –
21 | N#Cc1c(Nc2cccc(Cl)c2)n[nH]c1NCc1cccnc1Cl [Compound C28, 3-((3-chlorophenyl)amino)-5-(((2-chloropyridin-3-yl)methyl)amino)-1H-pyrazole-4-carbonitrile] | ≤ 5 | –
22 | N#Cc1c(Nc2cccc(Cl)c2)n[nH]c1NCc1c[nH]c2c(F)c(F)c(F)c(F)c12 [Compound C8] | 5 to 20 | –
23 | N#Cc1c(Nc2cccc(Cl)c2)n[nH]c1NCc1ccc(OCc2ccc(F)cc2)cc1 [Compound C6] | 20 to 50 | –

Row | Structure (SMILES) | inhibition at 1 µM [%] | Activity (inhibition of the RC kinase activity at 1 μM)
24 | N#Cc1c(Nc2cccc(Cl)c2)n[nH]c1NCc1c(O)cccc1Cl [Compound C25] | 20 to 50 | –
25 | N#Cc1c(Nc2cccc(Cl)c2)n[nH]c1NCc1ccc(OC(F)F)c(O)c1 [Compound C17, 3-((3-chlorophenyl)amino)-5-((4-(difluoromethoxy)-3-hydroxybenzyl)amino)-1H-pyrazole-4-carbonitrile] | ≤ 5 | –
26 | Cc1cc(F)ccc1CNc1[nH]nc(Nc2cccc(Cl)c2)c1C#N [Compound C29, 3-((3-chlorophenyl)amino)-5-((4-fluoro-2-methylbenzyl)amino)-1H-pyrazole-4-carbonitrile] | 5 to 20 | –
27 | COc1ncc(CNc2[nH]nc(Nc3cccc(Cl)c3)c2C(N)=O)cn1 [Compound D87] | ≤ 5 | –
28 | NC(=O)c1c(Nc2cccc(Cl)c2)n[nH]c1NCc1c[nH]nc1-c1ccc(F)cc1 [Compound D166] | ≤ 5 | –
29 | N#Cc1c(Nc2cccc(Cl)c2)n[nH]c1NCc1ccc(-n2cnc3ccccc32)cc1 [Compound C7] | 5 to 20 | –
30 | N#Cc1c(Nc2cccc(Cl)c2)n[nH]c1NCc1ccc(OC(F)(F)F)c(F)c1 [Compound C10] | ≤ 5 | –
31 | COc1ccc(CNc2[nH]nc(Nc3cccc(Cl)c3)c2C#N)c(C)c1C [Compound C22] | ≤ 5 | –
32 | CN1CCN(c2ccc(CNc3[nH]nc(Nc4cccc(Cl)c4)c3C#N)cc2)CC1 [Compound C13] | ≤ 5 | –
33 | N#Cc1c(Nc2cccc(Cl)c2)n[nH]c1NCc1ccc(S(F)(F)(F)(F)F)cc1 [Compound C5, 3-((3-chlorophenyl)amino)-5-((4-pentafluorothiobenzyl)amino)-1H-pyrazole-4-carbonitrile] | 5 to 20 | –
34 | NC(=O)c1c(Nc2cccc(Cl)c2)n[nH]c1NCc1ccc(O)nc1 [Compound D86] | ≤ 5 | –
35 | N#Cc1c(Nc2cccc(Cl)c2)n[nH]c1NCc1ccc(-c2ccc(Cl)cc2)o1 [Compound C12] | ≤ 5 | –
36 | NC(=O)c1c(Nc2ccc(NC(=O)c3ccccc3OC(F)(F)F)cc2)n[nH]c1NCc1ccc(O)cc1 [Compound D147] | – | A (at least 50% inhibition of the RC kinase activity at 1 μM)
37 | NC(=O)c1c(Nc2ccc(CN3CCOCC3)cc2)n[nH]c1NCc1ccc(O)cc1 [Compound D134, 5-((4-hydroxybenzyl)amino)-3-((4-(morpholinomethyl)phenyl)amino)-1H-pyrazole-4-carboxamide] | ≥ 50 | –
38 | COc1cccc(C(=O)Nc2ccc(Nc3n[nH]c(NCc4ccc(O)cc4)c3C(N)=O)cc2)c1 [Compound D145] | – | A (at least 50% inhibition of the RC kinase activity at 1 μM)
39 | N#Cc1c(Nc2cccc(Cl)c2)n[nH]c1NCc1ccc(-n2cncn2)cc1 [Compound C20] | 5 to 20 | –
40 | N#Cc1c(Nc2cccc(Cl)c2)n[nH]c1NCc1nc(-c2ccccc2)[nH]c1Cl [Compound C11] | ≤ 5 | –
41 | NC(=O)c1c(Nc2ccc(NC(=O)c3cccc(Cl)c3)cc2)n[nH]c1NCc1ccc(O)cc1 [Compound D130] | ≥ 50 | –
42 | NC(=O)c1c(Nc2cccc(Cl)c2)n[nH]c1NCc1ccc(Oc2ncccn2)cc1 [Compound D11, 3-((3-chlorophenyl)amino)-5-((4-(pyrimidin-2-yloxy)benzyl)amino)-1H-pyrazole-4-carboxamide] | – | A (at least 50% inhibition of the RC kinase activity at 1 μM)
43 | CC1CCN(C2CCN(c3n[nH]c(NCc4ccc(O)cc4)c3C(N)=O)CC2)CC1 [Compound D88] | 20 to 50 | –
44 | N#Cc1c(Nc2cccc(Cl)c2)n[nH]c1NCc1ccc(N2CCOCC2)nc1 [Compound C15] | ≤ 5 | –
45 | NC(=O)c1c(Nc2cccc(Cl)c2)n[nH]c1NCc1c[nH]c2c(F)c(F)c(F)c(F)c12 [Compound D22, 3-((3-chlorophenyl)amino)-5-(((4,5,6,7-tetrafluoro-1H-indol-3-yl)methyl)amino)-1H-pyrazole-4-carboxamide] | ≤ 5 | –

test system: not given; test: not given; conditions: not given

Row | Structure (SMILES) | melting point [°C]
46 | CCc1cccc(Nc2n[nH]c(NCc3ccc(O)cc3)c2C(N)=O)c1 [Compound D68, 3-((3-ethylphenyl)amino)-5-((4-hydroxybenzyl)amino)-1H-pyrazole-4-carboxamide] | 208 to 212
